Key:
[1] = tested on: sugarbeets; test: Pre-planting sugar application on sugarbeets, Hickson; assay type: in vivo, sugarbeet; details: for Recoverable Sugar Yield / Recoverable Sugar Yield Increase Compared to Check Average / Sugarbeet Yield: ND; for number of treatments showing negative yield benefits compared to check average: six rates per sugar
Protocol: (§1) The field trials were conducted simultaneously in two different planting locations for each of the crops. One location was near the community of Foxhome in Wilkin County, Minnesota (hereafter referred to as “Foxhome”) while the second location was near the community of Hickson in Cass County, North Dakota (hereafter referred to as “Hickson”). The Foxhome and Hickson locations are on opposite sides of the Red River along the border of Minnesota and North Dakota and separated by a distance exceeding 40 miles. Generally, the Foxhome location has heavier clay loam soil conditions while Hickson has sandy loam soil conditions.
(§2) At each of the Foxhome and Hickson locations, a total of thirty two (32) treatments were conducted for each crop (sugarbeets, soybeans, corn, wheat). Each treatment was replicated four times arranged in a Randomized Complete Block (RCB) Design in the same field. Each replication consisted of a plot measuring twenty five (25) feet in length and eleven (11) feet in width. In selecting the particular seed types for evaluation, popular commercial varieties to the region were utilized. For the row crops (sugarbeets, soybeans, corn) each replication included a width of six (6) rows with twenty two (22) inch row spacing and having a row length of twenty five (25) feet. The wheat was planted in accordance with standard commercial practices. To reduce/eliminate any treatment impacts between adjacent plots for the crops, only the four (4) interior rows of each plot were treated and evaluated for row crops, while for wheat, only the interior 7.33 feet of each plot were treated and evaluated. With the exception of the treatment program applied to the individual plots, which will be discussed below, conventional commercial growing practices for each planting location were otherwise followed during the field trials. While the individual plots at the same location, Hickson or Foxhome, experienced essentially the same growing conditions throughout the season, there were various differences associated with localized precipitation, general growing conditions, soil classification and the like, which contributed to performance differences between the Hickson and Foxhome locations.
(§3) The treatment regimen at each location for each of the tested crops included two (2) untreated treatments (Treatments 31 and 32) in which no sugar was applied and constitute the control elements. […] Six (6) treatments (Treatments 13-18) included the liquid application of high fructose corn syrup (hereafter “HFCS”) at varying rates. Six treatments (Treatments 19-24) included the liquid application of dextrose (hereafter “LIQDEX”) at varying rates. Six (6) treatments (Treatments 25-30) included the application of powdered cellulose (hereafter “POWCEL”) at varying rates. For the sugar applied in a solid form, granulated or powdered, field application was conducted via conventional broadcast spreading. For the sugar applied in a liquid form, a liquid concentrate was mixed and diluted with water in a tank and a conventional sprayer was configured such that the liquid was sprayed so as to have the same sugar equivalent (measured in pounds/per acre) as the sugar in solid form. Regardless of whether the sugar was applied as a solid or liquid, the sugar was applied directly onto the soil before spring tillage, lightly worked into the ground and followed by planting of the crop seed in the treated ground. A summary of application rates for each plot treatments are contained in Table 7 below and were used consistently with each of the crops (sugarbeets, soybeans, corn, wheat).
To test the impact of pre-planting application rates and sugar source on sugarbeets, identical field trials using Crystal® brand ACH 260 sugarbeet seed were conducted at the Foxhome and Hickson locations. Planting of the sugarbeet seed and harvest of the sugarbeets were conducted on as close to the same dates as practical so as to have essentially the same length growing season. […]

[2] = tested on: wheat; test: Pre-planting sugar application on wheat, Hickson; assay type: in vivo; details: for Yield / Yield Increase Compared to Check: ND
Protocol: as §1, §2, §3
To test the impact of pre-planting application rates and sugar source on wheat, identical field trials using Westbred Mayville wheat seed were conducted at the Foxhome and Hickson locations. Planting of the wheat seed and harvest of the wheat were conducted on the same dates so as to have essentially the same growing season. […]

[3] = tested on: sugarbeets; test: In-furrow sugar and/or fertilizer application on sugarbeets, Foxhome; assay type: in vivo, sugarbeet; details: for Recoverable Sugar / Sugarbeets / Yield Increase Compared to Check: in-furrow
Protocol: In addition to testing pre-planting application of sugar, additional in-furrow application of sugar during sugarbeet planting was conducted. This testing was conducted at the Foxhome location and included ten (10) separate treatments. These treatments included one (1) untreated check treatment in which no sugar was applied and constitutes the control element. The treatments included one (1) treatment in which only a conventional fertilizer (liquid ammonium phosphate commonly and hereafter referred to as “10-34-0”) was applied in-furrow. […] Four (4) treatments included the in-furrow application of concentrated raw sugar juice (hereafter “CONCRJ”) at varying rates and/or 10-34-0. Liquid sugar is essentially comprised of sucrose. […] Liquid sugar, concentrated raw juice and 10-34-0 were all mixed and diluted with water in a tank and a conventional sprayer was configured such that the liquid was sprayed so as to have the desired sugar and fertilizer equivalent. For the sugar applied at rates of three gallons per acre, the sugar mixture was equivalent to 25 pounds per acre of sugar. […] In each replication, the liquid was applied into the furrow during planting of the sugarbeet seeds. A summary of the in-furrow sugar beet testing is contained in Table 16 below: […]

[4] = sugar 3 gal/acre + 10-34-0 3 gal/acre
[5] = sugar 3 gal/acre, 10-34-0 0 gal/acre
[6] = sugar 5 gal/acre + 10-34-0 3 gal/acre
[7] = sugar 5 gal/acre, 10-34-0 0 gal/acre

Q: Which results are given for `OC[C@H]1O[C@@](CO)(O[C@H]2O[C@H](CO)[C@@H](O)[C@H](O)[C@H]2O)[C@@H](O)[C@@H]1O` [LIQSUC, sucrose]?
A: Recoverable Sugar Yield ([1]; pre-planting 25 pounds/Acre): 9363 Pounds/Acre; Recoverable Sugar Yield Increase Compared to Check Average ([1]; pre-planting 25 pounds/Acre): −4.55%; Sugarbeet Yield ([1]; pre-planting 25 pounds/Acre): 28.83 Tons/Acre; Recoverable Sugar Yield ([1]; pre-planting 50 pounds/Acre): 10217 Pounds/Acre; Recoverable Sugar Yield Increase Compared to Check Average ([1]; pre-planting 50 pounds/Acre): 4.16%; Sugarbeet Yield ([1]; pre-planting 50 pounds/Acre): 32.05 Tons/Acre; Recoverable Sugar Yield ([1]; pre-planting 100 pounds/Acre): 9216 Pounds/Acre; Recoverable Sugar Yield Increase Compared to Check Average ([1]; pre-planting 100 pounds/Acre): −6.05%; Sugarbeet Yield ([1]; pre-planting 100 pounds/Acre): 28.83 Tons/Acre; Recoverable Sugar Yield ([1]; pre-planting 150 pounds/Acre): 9089 Pounds/Acre; Recoverable Sugar Yield Increase Compared to Check Average ([1]; pre-planting 150 pounds/Acre): −7.34%; Sugarbeet Yield ([1]; pre-planting 150 pounds/Acre): 31.95 Tons/Acre; Recoverable Sugar Yield ([1]; pre-planting 200 pounds/Acre): 9998 Pounds/Acre; Recoverable Sugar Yield Increase Compared to Check Average ([1]; pre-planting 200 pounds/Acre): 1.93%; Sugarbeet Yield ([1]; pre-planting 200 pounds/Acre): 32.35 Tons/Acre; Recoverable Sugar Yield ([1]; pre-planting 250 pounds/Acre): 9627 Pounds/Acre; Recoverable Sugar Yield Increase Compared to Check Average ([1]; pre-planting 250 pounds/Acre): −1.86%; Sugarbeet Yield ([1]; pre-planting 250 pounds/Acre): 32.29 Tons/Acre; number of treatments showing negative yield benefits compared to check average [1]: four of the six; Yield ([2]; pre-planting 25 pounds/Acre): 47.09 Bushels/Acre; Yield Increase Compared to Check ([2]; pre-planting 25 pounds/Acre): −4.17%; Yield ([2]; pre-planting 50 pounds/Acre): 53.46 Bushels/Acre; Yield Increase Compared to Check ([2]; pre-planting 50 pounds/Acre): 8.79%; Yield ([2]; pre-planting 100 pounds/Acre): 50.09 Bushels/Acre; Yield Increase Compared to Check ([2]; pre-planting 100 pounds/Acre): 1.93%; Yield ([2]; pre-planting 150 pounds/Acre): 46.03 Bushels/Acre; Yield Increase Compared to Check ([2]; pre-planting 150 pounds/Acre): −6.33%; Yield ([2]; pre-planting 200 pounds/Acre): 48.31 Bushels/Acre; Yield Increase Compared to Check ([2]; pre-planting 200 pounds/Acre): −1.69%; Yield ([2]; pre-planting 250 pounds/Acre): 50.24 Bushels/Acre; Yield Increase Compared to Check ([2]; pre-planting 250 pounds/Acre): 2.24%; recoverable sugar compared to the check treatment and to 10-34-0 only ([3]; every in-furrow application of liquid sucrose): increase in recoverable sugar; recoverable sugar compared to the same amount of liquid sugar with no 10-34-0 ([3]; in-furrow liquid sucrose plus 10-34-0): increase in recoverable sugar; Recoverable Sugar [3, 4]: 6437.113 Pounds/Acred; Sugarbeets [3, 4]: 26.3981 Tons/Acre; Yield Increase Compared to Check [3, 4]: 12.79%; Recoverable Sugar [3, 5]: 5777.0474 Pounds/Acred; Sugarbeets [3, 5]: 23.42 Tons/Acre; Yield Increase Compared to Check [3, 5]: 1.23%; Recoverable Sugar [3, 6]: 6262.2908 Pounds/Acred; Sugarbeets [3, 6]: 25.66 Tons/Acre; Yield Increase Compared to Check [3, 6]: 9.73%; Recoverable Sugar [3, 7]: 5881.91 Pounds/Acred; Sugarbeets [3, 7]: 24.38 Tons/Acre; Yield Increase Compared to Check [3, 7]: 3.06%

Q: For `OC[C@H]1O[C@@](CO)(O[C@H]2O[C@H](CO)[C@@H](O)[C@H](O)[C@H]2O)[C@@H](O)[C@@H]1O` [GS, sucrose], which “Recoverable Sugar Yield” value ([1]; pre-planting 25 pounds/Acre) is on record?
A: 9560 Pounds/Acre

Q: What about the “Recoverable Sugar Yield Increase Compared to Check Average” value ([1]; pre-planting 25 pounds/Acre) of the same compound?
A: −2.54%

Q: And the “Sugarbeet Yield” value ([1]; pre-planting 25 pounds/Acre)?
A: 32.73 Tons/Acre

Q: What about the “Recoverable Sugar Yield” value ([1]; pre-planting 50 pounds/Acre) of the same compound?
A: 10509 Pounds/Acre

Q: And the “Recoverable Sugar Yield Increase Compared to Check Average” value ([1]; pre-planting 50 pounds/Acre)?
A: 7.14%

Q: What about the “Sugarbeet Yield” value ([1]; pre-planting 50 pounds/Acre) of the same compound?
A: 35.37 Tons/Acre

Q: What about the “Recoverable Sugar Yield” value ([1]; pre-planting 100 pounds/Acre) of the same compound?
A: 9360 Pounds/Acre

Q: What about the “Recoverable Sugar Yield Increase Compared to Check Average” value ([1]; pre-planting 100 pounds/Acre) of the same compound?
A: −4.58%

Q: What about the “Sugarbeet Yield” value ([1]; pre-planting 100 pounds/Acre) of the same compound?
A: 31.94 Tons/Acre

Q: And the “Recoverable Sugar Yield” value ([1]; pre-planting 150 pounds/Acre)?
A: 9877 Pounds/Acre

Q: What about the “Recoverable Sugar Yield Increase Compared to Check Average” value ([1]; pre-planting 150 pounds/Acre) of the same compound?
A: 0.69%

Q: What about the “Sugarbeet Yield” value ([1]; pre-planting 150 pounds/Acre) of the same compound?
A: 32.34 Tons/Acre

Q: And the “Recoverable Sugar Yield” value ([1]; pre-planting 200 pounds/Acre)?
A: 9426 Pounds/Acre

Q: What about the “Recoverable Sugar Yield Increase Compared to Check Average” value ([1]; pre-planting 200 pounds/Acre) of the same compound?
A: −3.90%

Q: And the “Sugarbeet Yield” value ([1]; pre-planting 200 pounds/Acre)?
A: 31.37 Tons/Acre

Q: What about the “Recoverable Sugar Yield” value ([1]; pre-planting 250 pounds/Acre) of the same compound?
A: 9587 Pounds/Acre

Q: And the “Recoverable Sugar Yield Increase Compared to Check Average” value ([1]; pre-planting 250 pounds/Acre)?
A: −2.26%

Q: What about the “Sugarbeet Yield” value ([1]; pre-planting 250 pounds/Acre) of the same compound?
A: 30.7 Tons/Acre

Q: And the “number of treatments showing negative yield benefits compared to check average” value [1]?
A: four of the six

Q: What about the Yield ([2]; pre-planting 25 pounds/Acre) of the same compound?
A: 51.82 Bushels/Acre

Q: And the “Yield Increase Compared to Check” value ([2]; pre-planting 25 pounds/Acre)?
A: 5.45%

Q: What about the Yield ([2]; pre-planting 50 pounds/Acre) of the same compound?
A: 52.47 Bushels/Acre

Q: And the “Yield Increase Compared to Check” value ([2]; pre-planting 50 pounds/Acre)?
A: 6.78%

Q: What about the Yield ([2]; pre-planting 100 pounds/Acre) of the same compound?
A: 49.94 Bushels/Acre

Q: And the “Yield Increase Compared to Check” value ([2]; pre-planting 100 pounds/Acre)?
A: 1.63%

Q: And the Yield ([2]; pre-planting 150 pounds/Acre)?
A: 44.54 Bushels/Acre

Q: And the “Yield Increase Compared to Check” value ([2]; pre-planting 150 pounds/Acre)?
A: −9.36%

Q: And the Yield ([2]; pre-planting 200 pounds/Acre)?
A: 50.25 Bushels/Acre

Q: What about the “Yield Increase Compared to Check” value ([2]; pre-planting 200 pounds/Acre) of the same compound?
A: 2.26%

Q: And the Yield ([2]; pre-planting 250 pounds/Acre)?
A: 50.40 Bushels/Acre

Q: What about the “Yield Increase Compared to Check” value ([2]; pre-planting 250 pounds/Acre) of the same compound?
A: 2.56%

Q: What about the “number of treatments showing yield improvement compared to check average” value ([2]; six rates (25-250 pounds/Acre) per sugar, thirty in all) of the same compound?
A: five of the six

— patent US20160262390A1, “FIELD APPLICATION OF SUGARS TO INCREASE CROP YIELD” (Minn-Dak Farmers Cooperative, priority 2015, published 2016)
